One molecule from ChEMBL document CHEMBL1142165, “Influence on mitochondria and cytotoxicity of different antibiotics administered in high concentrations on primary human osteoblasts and cell lines” (Antimicrob Agents Chemother, 2007) can be followed below.

Active and inactive are the calls of the source. No cut-off for these calls is given here.

In assay [1] the test system is Osteoblast. Nature of the assay: Antiproliferative effect against primary human osteoblasts assessed as BrdU incorporation into DNA after 48 hrs after 48 hrs below 1 uM. The assay is classed as functional, cell-based. On the technique in general: Uptake of a labelled nucleoside into DNA is a usual measure of proliferation.
The test system of assay [2] is Osteoblast. Nature of the assay: Increase in lactate production in primary human osteoblasts above 0.25 uM by ELISA. The assay is classed as functional.
Assay [3] concerns MG-63. Description: Inhibition of metabolic activity in MG63 cells by MTT assay relative to control. The format is functional, Homo sapiens.
Assay [4] relates to Osteoblast. Nature of the assay: Inhibition of metabolic activity in primary human osteoblasts by MTT assay below 1 uM. The assay is classed as functional, cell-based.
Assay [5] concerns MG-63. Description: Increase in lactate production in MG63 cells at 50 nM by ELISA relative to control. The assay is classed as functional, Homo sapiens.
Assay [6] concerns Osteoblast. Nature of the assay: Increase in lactate production in primary human osteoblasts at 10 hrs by ELISA. The format is functional. (ELISA stands for enzyme-linked immunosorbent assay.)

What is called Inhibition is how much of the control response was suppressed. Low values mean a weak effect, high ones a strong effect. For the molecule `CCCCCC[C@H]1C(=O)O[C@H](C)[C@H](NC(=O)c2cccc(NC=O)c2O)C(=O)O[C@@H](C)[C@@H]1OC(=O)CC(C)C` [ANTIMYCIN A], the outcome in the assay on Osteoblast [1] and with Osteoblast [4] was inactive. Also, the Activity in the assay with Osteoblast [2] was determined as 150%; with MG-63 [5], 50%; in the assay on Osteoblast [6] it was 14 µmol. This molecule showed an Inhibition in the assay with MG-63 [3] of 70%.
